Patent US8921398B2 (Boehringer Ingelheim International GmbH, priority 2011, dated 2014)

Columns and labels:
human GPR119 = biological target: T1, human GPR119 (Homo sapiens, UniProt Q8TDV5); test: AlphaScreen cAMP assay in MIN6 cells stably transfected with human GPR119; assay type: cell-based; conditions: Min-6/hGPR119 cells, 45 minutes incubation at room temperature
T1 construct: expression vector for human GPR119 cDNA (Acc. No. NP_848566); expressed in transfected cells
T1 sequence (Q8TDV5 1-335): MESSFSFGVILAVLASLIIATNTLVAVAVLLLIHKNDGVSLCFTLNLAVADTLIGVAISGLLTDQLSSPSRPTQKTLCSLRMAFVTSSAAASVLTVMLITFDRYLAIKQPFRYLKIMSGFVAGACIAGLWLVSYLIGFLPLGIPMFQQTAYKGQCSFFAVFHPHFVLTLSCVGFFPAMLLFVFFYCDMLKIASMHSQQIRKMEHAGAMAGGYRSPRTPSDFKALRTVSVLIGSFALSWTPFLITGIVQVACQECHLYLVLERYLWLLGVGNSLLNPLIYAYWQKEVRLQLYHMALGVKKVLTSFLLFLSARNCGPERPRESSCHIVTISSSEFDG
Procedure: The compounds of formula I according to the invention modulate the activity of the G-protein-coupled receptor GPR119. The effect of the compounds on the activation of GPR119 and on the stimulation of intracellular cAMP concentration is determined using the AlphaScreen cAMP Assay Kit (Cat.No.#6760625R) made by PerkinElmer.
MIN6 cells [Miyazaki J et al. Endocrinology. 1990 July; 127(1):126-32] are stably transfected with an expression vector for human GPR119 cDNA (Acc. No. NP_848566). Min-6/hGPR119 cells are cultured in DMEM, 10% FBS, 50 μM β-mercaptoethanol, 0.3 mg/mL Geniticin, 2 mM GlutaMAX at 37° C. 5% CO2. For the assay, the cells are seeded in Optiplates (white, 384-well, 160W-barcoded, TC, sterile with lid, Cat.No.#6007688 (Perkin Elmer); 10000 cells/well; 50 μl). The plates covered with lids are then incubated for 24 hours at 37° C./5% CO2. After the medium is aspirated from the wells completely, 10 μl of the test compound are added, the compounds are diluted using stimulating buffer (140 mM NaCl, 3.6 mM KCl, 0.5 mM NaH2PO4, 0.5 mM MgSO4, 1.5 mM CaCl2, 10 mM Hepes, 5 mM NaHCO3; pH 7.4. 0.5 mM IBMX and 0.1% BSA, the final DMSO concentration is 1%). After 45 minutes incubation at room temperature (approx. 20° C.), the cAMP concentrations are determined using the AlphaScreen cAMP Assay Kit (Cat.No.#6760625R from PerkinElmer).

[1] = biological target: T2, mutant form of the human GPR119 receptor (Homo sapiens, UniProt Q8TDV5, S329A/T327A); test: LANCE cAMP-384 assay in HEK293 cells stably expressing a mutant form of the human GPR119 receptor; assay type: cell-based; conditions: cAMP accumulation, GPR119 stable HEK293 cells, LANCE kit, 20 min at 37° C.
T2 construct: expressed in transfected cells
T2 sequence (Q8TDV5 with tags, fused parts or gaps T327A/S329A): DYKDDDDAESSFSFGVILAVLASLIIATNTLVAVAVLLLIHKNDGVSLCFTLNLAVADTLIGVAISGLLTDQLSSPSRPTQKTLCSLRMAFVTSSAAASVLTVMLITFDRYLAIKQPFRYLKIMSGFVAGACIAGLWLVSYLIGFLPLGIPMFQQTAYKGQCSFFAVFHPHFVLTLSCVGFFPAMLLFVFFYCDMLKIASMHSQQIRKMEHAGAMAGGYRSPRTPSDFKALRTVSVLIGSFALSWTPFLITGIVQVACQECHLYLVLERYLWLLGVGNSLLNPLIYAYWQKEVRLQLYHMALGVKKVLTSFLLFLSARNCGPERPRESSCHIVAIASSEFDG
Procedure: Quantitative detection of cAMP accumulation from cells expressing human GPR119 receptor is achieved using Perkin Elmer's LANCE cAMP-384 Kit (Cat#AD0264) according to the manufacturer's protocol. Briefly, HEK293 cells stably expressing a mutant form of the human GPR119 receptor as assay tool (Methionine 1 replaced with the amino acid sequence […], and T327 & S329 changed to alanines; SEQ ID No. 1) are grown to 50-70% confluency in cell culture media (DMEM, 10% heat inactivated Fetal Bovine Serum, 50 I.U./mL penicillin, 50 μg/mL streptomycin, 10 mM HEPES, 20 μg/mL G418 Sulfate). On the day of the assay, GPR119 stable HEK293 cells are lifted from the tissue culture plate and 1000 cells/well are incubated along with various concentrations of test compounds for 20 min at 37° C. Detection Buffer (50 mM HEPES, 10 mM calcium chloride, 0.35% Triton X-100, 1 mg/mL BSA) containing cAMP-specific antibody is then added to all wells and allowed to equilibrate in the dark for 10 minutes at room temperature. Upon equilibration, Detection Buffer containing europium-labeled cAMP tracer complex is added to all wells and allowed to react for 1 hour at room temperature. After 1 hour, bound europium-labeled cAMP tracer is measured using a Perkin Elmer Envision plate reader. The quantity of cAMP generated in each well is derived from a standard curve. EC50 is determined using nonlinear regression analysis of the cAMP values over a range of agonist concentration (12 points spanning the range from 30 μM to 100 pM).

| Compound | EC50 (human GPR119) [nM] | EC50 [1] [nM] |
| --- | --- | --- |
| CCc1noc(N2CCC(N(C(=O)c3cnc(-c4ccc(C#N)c(F)c4)nc3)C3CC3)CC2)n1 [Example 11, 2-(4-Cyano-3-fluoro-phenyl)-pyrimidine-5-carboxylic acid cyclopropyl-[1-(3-ethyl-[1,2,4]oxadiazol-5-yl)-piperidin-4-yl]-amide] | 32 | – |
| CS(=O)(=O)c1ccc(-c2ncc(C(=O)N(C3CC3)C3CCN(c4noc(C5CC5)n4)CC3)cn2)cc1 [Example 20, 2-(4-Methanesulfonyl-phenyl)-pyrimidine-5-carboxylic acid cyclopropyl-[1-(5-cyclopropyl-[1,2,4]oxadiazol-3-yl)-piperidin-4-yl]-amide] | 92 | – |
| CC(C)(C)c1noc(N2CCC(N(C(=O)c3ccc(-c4cnco4)nc3)C3CC3)CC2)n1 [Example 36, N-[1-(3-tert-Butyl-[1,2,4]oxadiazol-5-yl)-piperidin-4-yl]-N-cyclopropyl-6-oxazol-5-yl-nicotinamide] | 46 | – |
| CCCc1noc(N2CCC(N(C(=O)c3ccc(-c4cnco4)nc3)C3CC3)CC2)n1 [Example 40, N-Cyclopropyl-6-oxazol-5-yl-N-[1-(3-propyl-[1,2,4]oxadiazol-5-yl)-piperidin-4-yl]-nicotinamide] | 89 | – |
| CCc1cnc(N2CCC(N(C(=O)c3cnc(-c4ccc(CC#N)cc4)nc3)C3CC3)CC2)nc1 [Example 5, 2-(4-Cyanomethyl-phenyl)-pyrimidine-5-carboxylic acid cyclopropyl-[1-(5-ethyl-pyrimidin-2-yl)-piperidin-4-yl]-amide] | 118 | – |
| CCc1cnc(N2CCC(N(C(=O)c3ccc(-n4ccnc4)nn3)C3CC3)CC2)nc1 [Example 17, 6-Imidazol-1-yl-pyridazine-3-carboxylic acid cyclopropyl-[1-(5-ethyl-pyrimidin-2-yl)-piperidin-4-yl]-amide] | 964 | – |
| CCc1cnc(N2CCC(N(C(=O)c3cnc(-c4ccc(C#N)c(F)c4)nc3)C3CC3)CC2)nc1 [Example 4] | 94 | – |
| CC(C)c1noc(N2CCC(N(C(=O)c3cnc(-c4cnco4)cn3)C3CC3)CC2)n1 [Example 33, 5-Oxazol-5-yl-pyrazine-2-carboxylic acid cyclopropyl-[1-(3-isopropyl-[1,2,4]oxadiazol-5-yl)-piperidin-4-yl]amide] | 25 | – |
| CCCc1noc(N2CCC(N(C(=O)c3cnc(-c4ccc(S(C)(=O)=O)cc4)nc3)C3CC3)CC2)n1 [Example 16, 2-(4-Methanesulfonyl-phenyl)-pyrimidine-5-carboxylic acid cyclopropyl-[1-(3-propyl-[1,2,4]oxadiazol-5-yl)-piperidin-4-yl]-amide] | 159 | – |
| Cc1cnc(N2CCC(N(C(=O)c3ccc(-c4cnco4)nc3)C3CC3)CC2)cn1 [Example 42, N-Cyclopropyl-N-[1-(5-methyl-pyrazin-2-yl)-piperidin-4-yl]-6-oxazol-5-yl-nicotinamide] | 231 | – |
| Cc1cnc(N2CCC(N(C(=O)c3ccc(-c4cnco4)nc3)C3CC3)CC2)nc1 [Example 41, N-Cyclopropyl-N-[1-(5-methyl-pyrimidin-2-yl)-piperidin-4-yl]-6-oxazol-5-yl-nicotinamide] | 159 | – |
| CCOc1ccc(-c2ncc(C(=O)N(C3CC3)C3CCN(c4ncc(CC)cn4)CC3)cn2)cn1 [Example 3, 2-(6-Ethoxy-pyridin-3-yl)-pyrimidine-5-carboxylic acid cyclopropyl-[1-(5-ethyl-pyrimidin-2-yl)-piperidin-4-yl]-amide] | 487 | – |
| CCc1cnc(N2CCC(N(C(=O)c3cnc(-n4ccnc4CC)nc3)C3CC3)CC2)nc1 [Example 15, 2-(2-Ethyl-imidazol-1-yl)-pyrimidine-5-carboxylic acid cyclopropyl-[1-(5-ethyl-pyrimidin-2-yl)-piperidin-4-yl]-amide] | 60 | – |
| CCCc1noc(N2CCC(N(C(=O)c3cnc(-n4ccnc4)nc3)C3CC3)CC2)n1 [Example 21, 2-Imidazol-1-yl-pyrimidine-5-carboxylic acid cyclopropyl-[1-(3-propyl-[1,2,4]oxadiazol-5-yl)-piperidin-4-yl]-amide] | 123 | – |
| Cc1nccn1-c1ncc(C(=O)N(C2CC2)[C@@H]2CCN(c3ncc(C(F)(F)F)cn3)C[C@@H]2F)cn1 (single isomer, unassigned) [Example 101] | – | 5 |
| CCc1cnc(N2CC[C@@H](N(C(=O)c3ccc(-n4ncnc4C)nc3)C3CC3)[C@@H](F)C2)nc1 (single isomer, unassigned) [Example 84] | – | 15 |
| Cc1nnnn1-c1ccc(C(=O)N(C2CC2)[C@H]2CCN(c3ccc(C(F)(F)F)cn3)C[C@H]2F)cn1 (single isomer, unassigned) [Example 70] | – | 127 |
| O=C(c1cnc(-n2cncn2)nc1)N(C1CC1)[C@@H]1CCN(c2ncc(Cl)cn2)C[C@@H]1F (single isomer, unassigned) [Example 96] | – | 65 |
| Cc1nccn1-c1cnc(C(=O)N(C2CC2)C2CCN(c3ncc(Cl)cn3)CC2)cn1 [Example 65] | – | 333 |
| CCc1cnc(N2CC[C@@H](N(C(=O)c3ccc(-n4nnnc4C)nc3)C3CC3)[C@@H](F)C2)nc1 (single isomer, unassigned) [Example 85] | – | 20 |
| O=C(c1cnc(-n2cncn2)cn1)N(C1CC1)C1CCN(c2ncc(C(F)(F)F)cc2F)CC1 [Example 46] | – | 78 |
| CCc1cnc(N2CCC(N(C(=O)c3cn(-c4ccc(S(C)(=O)=O)cc4F)cn3)C3CC3)CC2)nc1 [Example 105] | – | 233 |
| Cc1ncn(-c2cnc(C(=O)N(C3CC3)[C@@H]3CCN(c4ncc(Cl)cn4)C[C@@H]3F)cn2)n1 (single isomer, unassigned) [Example 98] | – | 14 |
| Cc1nnnn1-c1ccc(C(=O)N(C2CC2)C2CCN(c3ncc(C(F)(F)F)cc3F)CC2)cn1 [Example 49] | – | 9 |
| Cc1ncnn1-c1ccc(C(=O)N(C2CC2)[C@H]2CCN(c3ccc(C(F)(F)F)cn3)C[C@H]2F)cn1 (single isomer, unassigned) [Example 69] | – | 496 |
| Cc1nnnn1-c1ccc(C(=O)N(C2CC2)[C@@H]2CCN(c3ccc(C(F)(F)F)cn3)C[C@@H]2F)cn1 (single isomer, unassigned) [Example 77] | – | 13 |
| Cc1ncn(-c2cnc(C(=O)N(C3CC3)C3CCN(c4ncc(C(F)(F)F)cc4F)CC3)cn2)n1 [Example 48] | – | 27 |
| Cc1ncnn1-c1ccc(C(=O)N(C2CC2)[C@@H]2CCN(c3ccc(C(F)(F)F)cn3)C[C@@H]2F)cn1 (single isomer, unassigned) [Example 76] | – | 46 |
| Cc1ncnn1-c1ccc(C(=O)N(C2CC2)[C@@H]2CCN(c3ncc(Cl)cn3)C[C@@H]2F)cn1 (single isomer, unassigned) [Example 93] | – | 24 |
| Cc1nccn1-c1ncc(C(=O)N(C2CC2)[C@H]2CCN(c3ccc(C(F)(F)F)cn3)C[C@H]2F)cn1 (single isomer, unassigned) [Example 72] | – | 56 |
